Laboratory results: patent US11034650B2, “Compounds useful for treating a Mannheimia haemolytica or Histophilus somni infection” (Intervet Inc., priority 2016, dated 2021)
Values after ≈ are worked out from the molar mass of the structure shown.

Legend:
Assay type in all cases: cell-based
[1] = system: Mannheimia haemolytica MH 6357 (M7/2, reference strain, cattle infection strain); assay: MIC, broth-microdilution (CLSI VET01-A4), strain MH 6357; details: Mannheimia haemolytica strain MH 6357, broth-microdilution; unit assumed
Summary of the method: (§1)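 Visual endpoint: the first dilution of a doubling series lacking turbidity gives the MIC; CLSI VET01-S3 interpretive rules applied.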

[2] = system: Mannheimia haemolytica MH 6374 (ATCC 33396, reference strain); assay: MIC, broth-microdilution (CLSI VET01-A4), strain MH 6374; details: Mannheimia haemolytica strain MH 6374, broth-microdilution; unit assumed
Summary of the method: as §1

[3] = system: Mannheimia haemolytica MH 10720 (154, BRD field isolate); assay: MIC, broth-microdilution (CLSI VET01-A4), strain MH 10720; details: Mannheimia haemolytica strain MH 10720, broth-microdilution; unit assumed
Summary of the method: as §1

[4] = system: Mannheimia haemolytica MH 12587 (1071, BRD field isolate, macrolide-resistance: erm+, E+); assay: MIC, broth-microdilution (CLSI VET01-A4), strain MH 12587; details: Mannheimia haemolytica strain MH 12587, broth-microdilution; unit assumed
Summary of the method: as §1

[5] = system: Mannheimia haemolytica MH 13065 (XB0446-6003.9, BRD field isolate); assay: MIC, broth-microdilution (CLSI VET01-A4), strain MH 13065; details: Mannheimia haemolytica strain MH 13065, broth-microdilution; unit assumed
Summary of the method: as §1

[6] = system: Mannheimia haemolytica MH 13093 (XB0472-6014.1, BRD field isolate); assay: MIC, broth-microdilution (CLSI VET01-A4), strain MH 13093; details: Mannheimia haemolytica strain MH 13093, broth-microdilution; unit assumed
Summary of the method: as §1

[7] = system: Pasteurella multocida PM 6267 (P 2225 (L386), reference strain, mouse infection strain); assay: MIC, broth-microdilution (CLSI VET01-A4), strain PM 6267; details: Pasteurella multocida strain PM 6267, broth-microdilution; unit assumed
Summary of the method: as §1

[8] = system: Pasteurella multocida PM 6391 (ATCC 43137, reference strain); assay: MIC, broth-microdilution (CLSI VET01-A4), strain PM 6391; details: Pasteurella multocida strain PM 6391, broth-microdilution; unit assumed
Summary of the method: as §1

[9] = system: Pasteurella multocida PM 10775 (080130003051, BRD field isolate); assay: MIC, broth-microdilution (CLSI VET01-A4), strain PM 10775; details: Pasteurella multocida strain PM 10775, broth-microdilution; unit assumed
Summary of the method: as §1

[10] = system: Pasteurella multocida PM 12080 (IV102277-0093, BRD field isolate); assay: MIC, broth-microdilution (CLSI VET01-A4), strain PM 12080; details: Pasteurella multocida strain PM 12080, broth-microdilution; unit assumed
Summary of the method: as §1

Row | SMILES | MIC PM 6267 [7] [µg/mL] | MIC PM 6391 [8] [µg/mL] | MIC PM 10775 [9] [µg/mL] | MIC PM 12080 [10] [µg/mL] | MIC MH 6357 [1] [µg/mL] | MIC MH 6374 [2] [µg/mL] | MIC MH 10720 [3] [µg/mL] | MIC MH 12587 [4] [µg/mL] | MIC MH 13065 [5] [µg/mL] | MIC MH 13093 [6] [µg/mL]
1 | COCCNCc1ccc(C#Cc2ccc(C(=O)N[C@H](C(=O)NO)C(C)=NOC)cc2)cc1 [Compound 380] | 6.3 (≈ 13.9 µM) | 0.2 (≈ 0.442 µM) | 1.6 (≈ 3.54 µM) | 0.8 (≈ 1.77 µM) | 3.1 (≈ 6.85 µM) | 6.3 (≈ 13.9 µM) | 3.1 (≈ 6.85 µM) | 0.8 (≈ 1.77 µM) | 3.1 (≈ 6.85 µM) | 6.3 (≈ 13.9 µM)
2 | CC[C@H](C)[C@H](NC(=O)c1ccc(C#Cc2ccc(CNCc3ccccn3)cc2)cc1)C(=O)NO [Compound 180] | 0.4 (≈ 0.85 µM) | 1.6 (≈ 3.4 µM) | ≤ 0.1 | 0.8 (≈ 1.7 µM) | 0.8 (≈ 1.7 µM) | 1.6 (≈ 3.4 µM) | 0.2 (≈ 0.425 µM) | 3.1 (≈ 6.59 µM) | 1.6 (≈ 3.4 µM) | 1.6 (≈ 3.4 µM)
3 | CC(C)(C(NC(=O)c1ccc(C#Cc2ccc(CNCc3ccccn3)cc2)cc1)C(=O)NO)[N+](=O)[O-] (stereo not drawn) [Compound 282] | 0.8 (≈ 1.6 µM) | 0.4 (≈ 0.798 µM) | 0.4 (≈ 0.798 µM) | 0.2 (≈ 0.399 µM) | 0.8 (≈ 1.6 µM) | 0.8 (≈ 1.6 µM) | ≤ 0.1 | 1.6 (≈ 3.19 µM) | 0.4 (≈ 0.798 µM) | 1.6 (≈ 3.19 µM)
4 | CC(C)(C(NC(=O)c1ccc(C#Cc2ccc(CNCc3ccc(C(F)(F)F)cc3)cc2)cc1)C(=O)NO)[N+](=O)[O-] (stereo not drawn) [Compound 279] | 0.4 (≈ 0.704 µM) | 1.6 (≈ 2.81 µM) | 0.4 (≈ 0.704 µM) | 1.6 (≈ 2.81 µM) | 3.1 (≈ 5.45 µM) | 6.3 (≈ 11.1 µM) | 1.6 (≈ 2.81 µM) | 6.3 (≈ 11.1 µM) | 6.3 (≈ 11.1 µM) | 6.3 (≈ 11.1 µM)
5 | Nc1ccc(C#Cc2ccc(C(=O)N[C@@H](CO)C(=O)NO)cc2)cc1 [Compound 376, 4-[2-(4-aminophenyl)ethynyl]-N-[(1S)-2-(hydroxyamino)-1-(hydroxymethyl)-2-oxo-ethyl]benzamide] | 0.8 (≈ 2.36 µM) | 1.6 (≈ 4.71 µM) | ≤ 0.1 | 1.6 (≈ 4.71 µM) | 1.6 (≈ 4.71 µM) | 3.1 (≈ 9.14 µM) | 0.8 (≈ 2.36 µM) | 6.3 (≈ 18.6 µM) | 3.1 (≈ 9.14 µM) | 6.3 (≈ 18.6 µM)
6 | CON=C(C)[C@H](NC(=O)c1ccc(C#Cc2ccc(CNCc3cccnc3)cc2)cc1)C(=O)NO [Compound 388] | 3.1 (≈ 6.38 µM) | ≤ 0.1 | 0.2 (≈ 0.412 µM) | ≤ 0.1 | 0.4 (≈ 0.824 µM) | 0.8 (≈ 1.65 µM) | 0.8 (≈ 1.65 µM) | 0.2 (≈ 0.412 µM) | 0.8 (≈ 1.65 µM) | 0.8 (≈ 1.65 µM)
7 | CC(C)([C@H](NC(=O)c1ccc(C#Cc2ccc(CNCc3ncccn3)s2)cc1)C(=O)NO)S(C)(=O)=O [Compound 322] | 0.4 (≈ 0.738 µM) | 0.2 (≈ 0.369 µM) | ≤ 0.1 | ≤ 0.1 | 0.4 (≈ 0.738 µM) | 1.6 (≈ 2.95 µM) | ≤ 0.1 | 1.6 (≈ 2.95 µM) | 0.8 (≈ 1.48 µM) | 0.8 (≈ 1.48 µM)
8 | CC(=O)C(NC(=O)c1ccc(C#Cc2ccc(CNCC3CCCO3)cc2)cc1)C(=O)NO (stereo not drawn) [Compound 413] | 50 (≈ 111 µM) | 0.2 (≈ 0.445 µM) | 0.4 (≈ 0.89 µM) | 0.4 (≈ 0.89 µM) | 12.5 (≈ 27.8 µM) | 12.5 (≈ 27.8 µM) | 3.1 (≈ 6.9 µM) | 6.3 (≈ 14 µM) | 6.3 (≈ 14 µM) | 25 (≈ 55.6 µM)
9 | CON=C(C)[C@H](NC(=O)c1ccc(C#Cc2ccc(CNCc3ccnc(Cl)c3)cc2)cc1)C(=O)NO [Compound 389] | 3.1 (≈ 5.96 µM) | ≤ 0.1 | 0.4 (≈ 0.769 µM) | 0.4 (≈ 0.769 µM) | 0.8 (≈ 1.54 µM) | 1.6 (≈ 3.08 µM) | 0.8 (≈ 1.54 µM) | 0.4 (≈ 0.769 µM) | 1.6 (≈ 3.08 µM) | 1.6 (≈ 3.08 µM)
10 | CNCc1ccc(C#Cc2ccc(C(=O)N[C@H](C(=O)NO)C(C)C)cc2)cc1 [Compound 207] | 0.2 (≈ 0.527 µM) | 0.8 (≈ 2.11 µM) | ≤ 0.1 | 0.8 (≈ 2.11 µM) | 12.5 (≈ 32.9 µM) | 12.5 (≈ 32.9 µM) | 3.1 (≈ 8.17 µM) | 12.5 (≈ 32.9 µM) | 6.3 (≈ 16.6 µM) | 12.5 (≈ 32.9 µM)

The next lines start with results.

Row | MIC PM 6267 [7] [µg/mL] | MIC PM 6391 [8] [µg/mL] | MIC PM 10775 [9] [µg/mL] | MIC PM 12080 [10] [µg/mL] | SMILES | MIC MH 6357 [1] [µg/mL] | MIC MH 6374 [2] [µg/mL] | MIC MH 10720 [3] [µg/mL] | MIC MH 12587 [4] [µg/mL] | MIC MH 13065 [5] [µg/mL] | MIC MH 13093 [6] [µg/mL]
11 | 0.2 (≈ 0.417 µM) | 0.4 (≈ 0.834 µM) | ≤ 0.1 | 0.2 (≈ 0.417 µM) | CC(C)(O)[C@H](NC(=O)c1ccc(C#Cc2ccc(CNCc3nccs3)nc2)cc1)C(=O)NO [Compound 362] | 3.1 (≈ 6.46 µM) | 0.8 (≈ 1.67 µM) | 0.4 (≈ 0.834 µM) | 3.1 (≈ 6.46 µM) | 1.6 (≈ 3.34 µM) | 3.1 (≈ 6.46 µM)
12 | ≤ 0.1 | 0.4 (≈ 0.804 µM) | ≤ 0.1 | 0.4 (≈ 0.804 µM) | CC(C)([C@H](NC(=O)c1ccc(C#Cc2ccc(CN3CCCC3)cc2)cc1)C(=O)NO)S(C)(=O)=O [Compound 262] | 12.5 (≈ 25.1 µM) | 6.3 (≈ 12.7 µM) | 1.6 (≈ 3.22 µM) | 12.5 (≈ 25.1 µM) | 6.3 (≈ 12.7 µM) | 6.3 (≈ 12.7 µM)
13 | ≤ 0.1 | ≤ 0.1 | ≤ 0.1 | ≤ 0.1 | CC(C)([C@H](NC(=O)c1ccc(C#Cc2ccc(CNCc3ccnc(Cl)c3)cc2)cc1)C(=O)NO)S(C)(=O)=O [Compound 268] | 0.4 (≈ 0.703 µM) | 0.4 (≈ 0.703 µM) | ≤ 0.1 | 0.8 (≈ 1.41 µM) | 0.2 (≈ 0.351 µM) | 0.4 (≈ 0.703 µM)
14 | 0.4 (≈ 0.776 µM) | 0.8 (≈ 1.55 µM) | 0.4 (≈ 0.776 µM) | 0.8 (≈ 1.55 µM) | CSC(C)(C)[C@H](NC(=O)c1ccc(C#Cc2ccc(CNCc3ccc(C)cc3)cc2)cc1)C(=O)NO [Compound 252] | 1.6 (≈ 3.1 µM) | 3.1 (≈ 6.01 µM) | 0.4 (≈ 0.776 µM) | 3.1 (≈ 6.01 µM) | 1.6 (≈ 3.1 µM) | 1.6 (≈ 3.1 µM)
15 | 3.1 (≈ 5.79 µM) | 1.6 (≈ 2.99 µM) | 0.4 (≈ 0.747 µM) | 0.8 (≈ 1.49 µM) | CC(C)([C@H](NC(=O)c1ccc(C#Cc2ccc(CNCc3ccccn3)nc2)cc1)C(=O)NO)S(C)(=O)=O [Compound 353] | 3.1 (≈ 5.79 µM) | 6.3 (≈ 11.8 µM) | 0.8 (≈ 1.49 µM) | 12.5 (≈ 23.3 µM) | 6.3 (≈ 11.8 µM) | 6.3 (≈ 11.8 µM)
16 | 0.4 (≈ 0.884 µM) | 0.4 (≈ 0.884 µM) | ≤ 0.1 | 0.2 (≈ 0.442 µM) | CSC(C)(C)[C@H](NC(=O)c1ccc(C#Cc2ccc(CNC3CC3)nc2)cc1)C(=O)NO [Compound 335] | 0.4 (≈ 0.884 µM) | 0.8 (≈ 1.77 µM) | ≤ 0.1 | 3.1 (≈ 6.85 µM) | 0.4 (≈ 0.884 µM) | 0.8 (≈ 1.77 µM)
17 | 6.3 (≈ 12.2 µM) | ≤ 0.1 | 0.8 (≈ 1.55 µM) | 0.4 (≈ 0.777 µM) | CON=C(C)[C@H](NC(=O)c1ccc(C#Cc2ccc(CNCc3ccc(OC)cc3)cc2)cc1)C(=O)NO [Compound 383] | 0.8 (≈ 1.55 µM) | 1.6 (≈ 3.11 µM) | 0.8 (≈ 1.55 µM) | 0.4 (≈ 0.777 µM) | 1.6 (≈ 3.11 µM) | 1.6 (≈ 3.11 µM)
18 | ≤ 0.1 | ≤ 0.1 | ≤ 0.1 | ≤ 0.1 | CC(C)(O)[C@H](NC(=O)c1ccc(C#Cc2ccc(CNCc3ccccn3)cc2)cc1)C(=O)NO [Compound 230] | 0.8 (≈ 1.69 µM) | 0.4 (≈ 0.846 µM) | ≤ 0.1 | 1.6 (≈ 3.39 µM) | 0.8 (≈ 1.69 µM) | 0.8 (≈ 1.69 µM)
19 | ≤ 0.1 | 0.8 (≈ 1.77 µM) | ≤ 0.1 | 0.4 (≈ 0.886 µM) | CC[C@H](C)[C@H](NC(=O)c1ccc(C#Cc2ccc(CNC(C)COC)cc2)cc1)C(=O)NO (stereo partly drawn) [Compound 185] | 3.1 (≈ 6.86 µM) | 6.3 (≈ 14 µM) | 0.8 (≈ 1.77 µM) | 6.3 (≈ 14 µM) | 3.1 (≈ 6.86 µM) | 6.3 (≈ 14 µM)
20 | 0.2 (≈ 0.437 µM) | 0.8 (≈ 1.75 µM) | ≤ 0.1 | 0.2 (≈ 0.437 µM) | Cc1ccc(CNCc2ccc(C#Cc3ccc(C(=O)N[C@@H](CO)C(=O)NO)cc3)cc2)cc1 [Compound 161] | 1.6 (≈ 3.5 µM) | 1.6 (≈ 3.5 µM) | 0.8 (≈ 1.75 µM) | 6.3 (≈ 13.8 µM) | 3.1 (≈ 6.78 µM) | 6.3 (≈ 13.8 µM)
21 | ≤ 0.1 | 0.8 (≈ 1.65 µM) | ≤ 0.1 | 0.4 (≈ 0.824 µM) | CCCNCc1ccc(C#Cc2ccc(C(=O)N[C@H](C(=O)NO)C(C)(C)S(C)(=O)=O)cc2)cc1 [Compound 265] | 6.3 (≈ 13 µM) | 6.3 (≈ 13 µM) | 0.8 (≈ 1.65 µM) | 6.3 (≈ 13 µM) | 3.1 (≈ 6.38 µM) | 3.1 (≈ 6.38 µM)
